Assay results from patent US7314614B1, “Recombinant sendai virus vector for introducing exogenous genes to airway epithelia” (priority 1999, dated 2008).

Biological target: T1, CFTR (Homo sapiens, UniProt P13569)
T1 construct: expressed in transfected cells; host or cells: COS7 cells infected with the recombinant Sendai virus SeV/CFTR (CFTR cDNA in the NotI site of pSeV18+b(+))
Assay: Whole-cell patch clamp of COS7 cells infected with CFTR-expressing Sendai virus
Assay type: cell-based
Details: COS7 cells expressing sample-1 SeV/CFTR
Experimental: COS7 cells were infected with the prepared CFTR-expressing Sendai virus (sample-1 SeV/CFTR), and the obtained infected cells were analyzed by the whole-cell patch clamp technique. […] A glass pipette containing a pipette solution was contacted with a cell within a bath solution, and negative pressure was applied to remove the cell membranes. In this occasion, the pipette solution contains 145 mM NMDG^+, 148.4 mM Cl^−, […], 5 mM ATP, 10 mM glucose, 0.1 mM EGTA, and 10 mM HEPES (titrated by Tris, pH 7.4), and the bath solution contains 141 mM Na^+, 152.4 mM Cl^−, […], 5 mM K^+, 1.7 mM Mg^2+, 2 mM Ca^2+, 10 mM glucose, 0.1 mM EGTA, and 10 mM HEPES (titrated by Tris, pH 7.4). The effects of forskolin on the membrane current in COS7 cells expressing sample-1 SeV/CFTR were examined by whole-cell recording (FIG. 14). […] The influx current was reproduced by adding forskolin again after a single wash, and was again suppressed by glibenclamide, which confirmed that the observed change in current was a specific drug-induced response.

T1 sequence (P13569 whole entry): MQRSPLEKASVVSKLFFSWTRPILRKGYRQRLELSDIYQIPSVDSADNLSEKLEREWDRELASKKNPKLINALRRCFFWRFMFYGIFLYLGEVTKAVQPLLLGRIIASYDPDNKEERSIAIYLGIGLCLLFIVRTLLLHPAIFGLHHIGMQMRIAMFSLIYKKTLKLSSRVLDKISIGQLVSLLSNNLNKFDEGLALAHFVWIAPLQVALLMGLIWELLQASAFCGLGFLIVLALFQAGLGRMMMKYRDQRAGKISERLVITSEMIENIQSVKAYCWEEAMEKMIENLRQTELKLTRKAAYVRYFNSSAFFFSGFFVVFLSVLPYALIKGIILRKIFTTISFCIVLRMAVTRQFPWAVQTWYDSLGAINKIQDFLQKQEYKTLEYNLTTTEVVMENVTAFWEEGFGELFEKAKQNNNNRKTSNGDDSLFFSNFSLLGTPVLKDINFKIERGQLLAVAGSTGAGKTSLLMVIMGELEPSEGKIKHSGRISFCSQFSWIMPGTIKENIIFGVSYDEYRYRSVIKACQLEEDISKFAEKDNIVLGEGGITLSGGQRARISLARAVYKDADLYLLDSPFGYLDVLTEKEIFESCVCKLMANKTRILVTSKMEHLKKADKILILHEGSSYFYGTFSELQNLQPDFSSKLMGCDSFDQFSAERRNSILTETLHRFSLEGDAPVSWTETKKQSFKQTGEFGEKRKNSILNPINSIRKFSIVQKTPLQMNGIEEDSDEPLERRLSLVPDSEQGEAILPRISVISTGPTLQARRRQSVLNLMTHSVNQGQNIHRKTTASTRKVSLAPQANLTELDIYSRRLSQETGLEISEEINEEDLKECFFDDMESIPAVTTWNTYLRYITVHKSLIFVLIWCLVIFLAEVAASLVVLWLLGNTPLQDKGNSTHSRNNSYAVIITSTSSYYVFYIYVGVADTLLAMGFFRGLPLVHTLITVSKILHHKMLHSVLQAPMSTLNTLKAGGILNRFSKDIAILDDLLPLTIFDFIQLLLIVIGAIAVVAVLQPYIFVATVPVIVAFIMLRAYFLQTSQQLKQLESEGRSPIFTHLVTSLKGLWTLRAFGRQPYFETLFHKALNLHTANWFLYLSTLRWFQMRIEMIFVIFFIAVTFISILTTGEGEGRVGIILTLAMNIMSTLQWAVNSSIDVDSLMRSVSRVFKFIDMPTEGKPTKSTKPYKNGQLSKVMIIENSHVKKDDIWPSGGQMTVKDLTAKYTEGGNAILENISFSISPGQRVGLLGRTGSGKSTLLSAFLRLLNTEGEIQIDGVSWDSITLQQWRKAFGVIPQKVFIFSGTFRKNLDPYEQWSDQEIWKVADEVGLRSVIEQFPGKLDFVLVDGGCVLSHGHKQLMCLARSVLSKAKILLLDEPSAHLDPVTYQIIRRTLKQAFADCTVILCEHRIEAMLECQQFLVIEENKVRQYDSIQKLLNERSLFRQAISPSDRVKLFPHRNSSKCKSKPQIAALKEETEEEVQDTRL

COc1ccc(Cl)cc1C(=O)NCCc1ccc(S(=O)(=O)NC(=O)NC2CCCCC2)cc1 [Glibenclamide]
effect on forskolin-induced Cl− currents (300 μM): inhibited | effect on forskolin-induced influx current (whole-cell recording, reproduced after wash (FIG. 14)): suppressed
